From patent US11414416B1, “Compounds and uses thereof” (Foghorn Therapeutics Inc., priority 2019, dated 2022)

target: Nanoluciferase-BRD9 fusion protein (Homo sapiens (Human), UniProt Q9H8M2); experiment: SYO1 BRD9 NanoLuc degradation assay; format: cell-based; conditions: Table 5B; SYO-1 cells expressing 3×FLAG-NLuc-BRD9, 6 hours; read-out: SYO1 BRD9-NanoLuc degradation IC50
Summary of the method: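 Degradation was read as loss of nanoluciferase signal (Nano-Glo) after 6 h compound exposure in a stable SYO-1 line carrying 3×FLAG-NLuc-BRD9 (8000 cells/well). Normalised between DMSO (high) and a 1 μM known BRD9 degrader (low).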

Sequence of Nanoluciferase-BRD9 fusion protein (Q9H8M2 whole entry, the tested form may be a part): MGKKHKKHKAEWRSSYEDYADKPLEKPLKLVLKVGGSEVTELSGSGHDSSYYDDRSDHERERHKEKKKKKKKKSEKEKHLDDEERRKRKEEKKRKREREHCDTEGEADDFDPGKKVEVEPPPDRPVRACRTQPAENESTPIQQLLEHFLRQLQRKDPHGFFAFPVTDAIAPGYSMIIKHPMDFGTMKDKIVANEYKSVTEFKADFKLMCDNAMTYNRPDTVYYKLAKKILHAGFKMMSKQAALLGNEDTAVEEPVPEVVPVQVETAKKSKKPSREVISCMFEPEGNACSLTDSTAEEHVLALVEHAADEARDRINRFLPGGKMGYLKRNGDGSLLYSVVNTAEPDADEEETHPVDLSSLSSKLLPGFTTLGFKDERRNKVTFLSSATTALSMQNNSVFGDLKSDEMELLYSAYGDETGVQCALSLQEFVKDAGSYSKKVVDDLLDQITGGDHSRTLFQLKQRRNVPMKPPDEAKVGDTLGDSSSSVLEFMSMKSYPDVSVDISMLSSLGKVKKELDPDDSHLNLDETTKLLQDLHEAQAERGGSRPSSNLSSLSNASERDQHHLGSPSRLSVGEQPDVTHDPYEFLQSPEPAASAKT

DC50	Compound
100 to 1000 nM	COc1cc(-c2cn(C)c(=O)c3cnccc23)cc(OC)c1CN1CC(CCN2CCC3(CC2)CC(Oc2ccc4c(c2)C(=O)N(C2CCC(=O)NC2=O)C4=O)C3)C1 (stereo not drawn) [Compound D305]
< 10 nM	COc1cc(-c2cn(C)c(=O)c3cnccc23)cc(OC)c1CN1CC2(CCN(CC#Cc3ccc4c(c3)C(=O)N(C3CCC(=O)NC3=O)C4=O)C2)C1 (stereo not drawn) [Compound D306]
< 10 nM	COc1cc(-c2cn(C)c(=O)c3cnccc23)cc(OC)c1CN1CC2(CCN(CC#Cc3ccc4c(c3)C(=O)N(C3CCC(=O)NC3=O)C4=O)CC2)C1 (stereo not drawn) [Compound D307]
< 10 nM	COc1cc(-c2cn(C)c(=O)c3cnccc23)cc(OC)c1CN1CCC2(CC1)CCN(CC#Cc1ccc3c(c1)C(=O)N(C1CCC(=O)NC1=O)C3=O)C2 (stereo not drawn) [Compound D308]
10 to 100 nM	COc1cc(-c2cn(C)c(=O)c3cnccc23)cc(OC)c1CN1CC2(CN(CC#Cc3ccc4c(c3)C(=O)N(C3CCC(=O)NC3=O)C4=O)C2)C1 (stereo not drawn) [Compound D309]
< 10 nM	COc1cc(-c2cn(C)c(=O)c3cnccc23)cc(OC)c1CN1CCC2C(C1)CN2CCCC#Cc1ccc2c(c1)C(=O)N(C1CCC(=O)NC1=O)C2=O (stereo not drawn) [Compound D310]
10 to 100 nM	COc1cc(-c2cn(C)c(=O)c3cnccc23)cc(OC)c1CN1CC2(CCN(C(=O)CC#Cc3ccc4c(c3)C(=O)N(C3CCC(=O)NC3=O)C4=O)C2)C1 (stereo not drawn) [Compound D311]
< 10 nM	COc1cc(-c2cn(C)c(=O)c3cnccc23)cc(OC)c1CN1CC2(CCN(C(=O)CC#Cc3ccc4c(c3)C(=O)N(C3CCC(=O)NC3=O)C4=O)CC2)C1 (stereo not drawn) [Compound D312]
< 10 nM	COc1cc(-c2cn(C)c(=O)c3cnccc23)cc(OC)c1CN1CCC2(CC1)CCN(C(=O)CC#Cc1ccc3c(c1)C(=O)N(C1CCC(=O)NC1=O)C3=O)C2 (stereo not drawn) [Compound D313]
10 to 100 nM	COc1cc(-c2cn(C)c(=O)c3cnccc23)cc(OC)c1CN1CCC2(C1)CN(C(=O)CC#Cc1ccc3c(c1)C(=O)N(C1CCC(=O)NC1=O)C3=O)C2 (stereo not drawn) [Compound D314]
< 10 nM	COc1cc(-c2cn(C)c(=O)c3cnccc23)cc(OC)c1CN1CCC2C(C1)CN2C(=O)CC#Cc1ccc2c(c1)C(=O)N(C1CCC(=O)NC1=O)C2=O (stereo not drawn) [Compound D315]
< 10 nM	COc1cc(-c2cn(C)c(=O)c3cnccc23)cc(OC)c1CN1CCN(C(=O)CC#Cc2ccc3c(c2)C(=O)N(C2CCC(=O)NC2=O)C3=O)CC1 (stereo not drawn) [Compound D316]
10 to 100 nM	COc1cc(-c2cn(C)c(=O)c3cnccc23)cc(OC)c1CN1CC2(C1)CN(C(=O)CC#Cc1ccc3c(c1)C(=O)N(C1CCC(=O)NC1=O)C3=O)C2 (stereo not drawn) [Compound D317]
< 10 nM	COc1cc(-c2cn(C)c(=O)c3cnccc23)cc(OC)c1CN1CCC2(CC1)CN(C(=O)CC#Cc1ccc3c(c1)C(=O)N(C1CCC(=O)NC1=O)C3=O)C2 (stereo not drawn) [Compound D318]
< 10 nM	COc1cc(-c2cn(C)c(=O)c3cnccc23)cc(OC)c1CN1CCC(n2cc([C@@H](C)Oc3ccc4c(c3)C(=O)N(C3CCC(=O)NC3=O)C4=O)nn2)CC1 (stereo partly drawn) [Compound D319]
< 10 nM	COc1cc(-c2cn(C)c(=O)c3cnccc23)cc(OC)c1CN1CCC(n2cc([C@H](C)Oc3ccc4c(c3)C(=O)N(C3CCC(=O)NC3=O)C4=O)nn2)CC1 (stereo partly drawn) [Compound D320]
< 10 nM	COc1cc(-c2cn(C)c(=O)c3cnccc23)cc(OC)c1CN1CCC(c2nc(COc3ccc4c(c3)C(=O)N(C3CCC(=O)NC3=O)C4=O)cs2)CC1 (stereo not drawn) [Compound D321]
< 10 nM	COc1cc(-c2cn(C)c(=O)c3cnccc23)cc(OC)c1CN1CCC(c2cc(COc3ccc4c(c3)C(=O)N(C3CCC(=O)NC3=O)C4=O)on2)CC1 (stereo not drawn) [Compound D322]
< 10 nM	COc1cc(-c2cn(C)c(=O)c3cnccc23)cc(OC)c1CN1CCC(n2ccc(COc3ccc4c(c3)C(=O)N(C3CCC(=O)NC3=O)C4=O)n2)CC1 (stereo not drawn) [Compound D323]
< 10 nM	COc1cc(-c2cn(C)c(=O)c3cnccc23)cc(OC)c1CN1CCC(n2cc(COc3ccc4c(c3)C(=O)N(C3CCC(=O)NC3=O)C4=O)cn2)CC1 (stereo not drawn) [Compound D324]
< 10 nM	COc1cc(-c2cn(C)c(=O)c3cnccc23)cc(OC)c1CN1CCC(c2nc(COc3ccc4c(c3)C(=O)N(C3CCC(=O)NC3=O)C4=O)co2)CC1 (stereo not drawn) [Compound D325]
< 10 nM	COc1cc(-c2cn(C)c(=O)c3cnccc23)cc(OC)c1CN1CCC(c2ncc(COc3ccc4c(c3)C(=O)N(C3CCC(=O)NC3=O)C4=O)o2)CC1 (stereo not drawn) [Compound D326]
< 10 nM	COc1cc(-c2cn(C)c(=O)c3cnccc23)cc(OC)c1CN1CC(N2CCN(c3ccc4c(c3)C(=O)N(C3CCC(=O)NC3=O)C4=O)CC2)C1 (stereo not drawn) [Compound D327]
< 10 nM	COc1cc(-c2cc(C(F)(F)F)c(=O)n(C)c2)cc(OC)c1CN1CCC(CCN2CCN(c3ccc4c(c3)C(=O)N(C3CCC(=O)NC3=O)C4=O)CC2)CC1 (stereo not drawn) [Compound D328]
< 10 nM	COc1cc(-c2cc(C)c(=O)n(C)c2)cc(OC)c1CN1CCC(CCN2CCN(c3ccc4c(c3)C(=O)N(C3CCC(=O)NC3=O)C4=O)CC2)CC1 (stereo not drawn) [Compound D329]
< 10 nM	COc1cc(-c2cc(C)c(=O)n(C)c2)cc(OC)c1CN1CCN(c2ccc3c(c2)C(=O)N(C2CCC(=O)NC2=O)C3=O)CC1 (stereo not drawn) [Compound D330]

DC50	Compound
< 10 nM	COc1cc(-c2cc(C)c(=O)n(C)c2)cc(OC)c1CN1CCC2(CC1)CN(c1ccc3c(c1)C(=O)N(C1CCC(=O)NC1=O)C3=O)C2 (stereo not drawn) [Compound D331]
< 10 nM	COc1cc(-c2cc(C)c(=O)n(C)c2)cc(OC)c1CN1CCC2(CC1)CC(Oc1ccc3c(c1)C(=O)N(C1CCC(=O)NC1=O)C3=O)C2 (stereo not drawn) [Compound D332]
< 10 nM	COc1cc(-c2cc(C)c(=O)n(C)c2)cc(OC)c1CN1CCC(n2cc([C@H](C)Oc3ccc4c(c3)C(=O)N(C3CCC(=O)NC3=O)C4=O)nn2)CC1 (stereo partly drawn) [Compound D333]
> 1000 nM	COc1cc(-c2cc(C)c(=O)n(C)c2)cc(OC)c1CN1CCC(CCN2CCN(C3CCC(=O)NC3=O)C(=O)C2)CC1 (stereo not drawn) [Compound D334]
< 10 nM	COc1cc(-c2cc(C)c(=O)n(C)c2)cc(OC)c1CN1CC(C#Cc2ccc3c(c2)C(=O)N(C2CCC(=O)NC2=O)C3=O)C1 (stereo not drawn) [Compound D335]
< 10 nM	COc1cc(-c2cc(C)c(=O)n(C)c2)cc(OC)c1CN1CCC2(CCN(c3ccc4c(c3)C(=O)N(C3CCC(=O)NC3=O)C4=O)C2)C1 (stereo not drawn) [Compound D336]
< 10 nM	COc1cc(-c2cc(C)c(=O)n(C)c2)cc(OC)c1CN1CCC2(C1)CN(c1ccc3c(c1)C(=O)N(C1CCC(=O)NC1=O)C3=O)C2 (stereo not drawn) [Compound D337]
< 10 nM	COc1cc(-c2cc(C)c(=O)n(C)c2)cc(OC)c1CN1CCC2C(C1)CN2c1ccc2c(c1)C(=O)N(C1CCC(=O)NC1=O)C2=O (stereo not drawn) [Compound D338]
< 10 nM	COc1cc(-c2cc(C)c(=O)n(C)c2)cc(OC)c1CN1CCC2CN(c3ccc4c(c3)C(=O)N(C3CCC(=O)NC3=O)C4=O)C21 (stereo not drawn) [Compound D339]
< 10 nM	COc1cc(-c2cn(C)c(=O)c3[nH]ccc23)cc(OC)c1CN1CCC2(CC1)CN(c1ccc3c(c1)C(=O)N(C1CCC(=O)NC1=O)C3=O)C2 (stereo not drawn) [Compound D340]
< 10 nM	COc1cc(-c2cc(C(F)F)c(=O)n(C)c2)cc(OC)c1CN1CCC2(CC1)CN(c1ccc3c(c1)C(=O)N(C1CCC(=O)NC1=O)C3=O)C2 (stereo not drawn) [Compound D341]
> 1000 nM	COc1cc(-c2cnc(=O)n(C)c2)cc(OC)c1CN1CCN(CCC2CCN(c3ccc4c(c3)C(=O)N(C3CCC(=O)NC3=O)C4=O)CC2)CC1 (stereo not drawn) [Compound D342]
< 10 nM	COc1cc(-c2cc(C)c(=O)n(C)c2C)cc(OC)c1CN1CCN(c2ccc3c(c2)C(=O)N(C2CCC(=O)NC2=O)C3=O)CC1 (stereo not drawn) [Compound D343]
< 10 nM	COc1cc(-c2ccc(=O)n(C)c2)cc(OC)c1CN1CCN(c2ccc3c(c2)C(=O)N(C2CCC(=O)NC2=O)C3=O)CC1 (stereo not drawn) [Compound D344]
< 10 nM	COc1cc(-c2cn(C)c(=O)c(C)c2C)cc(OC)c1CN1CC(CN2CCC3(CC2)CN(c2ccc4c(c2)C(=O)N(C2CCC(=O)NC2=O)C4=O)C3)C1 (stereo not drawn) [Compound D345]
< 10 nM	COc1cc(-c2cc(C)c(=O)n(C)c2C)cc(OC)c1CN1CC(CN2CCC3(CC2)CN(c2ccc4c(c2)C(=O)N(C2CCC(=O)NC2=O)C4=O)C3)C1 (stereo not drawn) [Compound D346]
< 10 nM	COc1cc(-c2ccc(=O)n(C)c2)cc(OC)c1CN1CC(CN2CCC3(CC2)CN(c2ccc4c(c2)C(=O)N(C2CCC(=O)NC2=O)C4=O)C3)C1 (stereo not drawn) [Compound D347]
< 10 nM	C=CCn1cc(-c2cc(OC)c(CN3CC(CN4CCC5(CC4)CN(c4ccc6c(c4)C(=O)N(C4CCC(=O)NC4=O)C6=O)C5)C3)c(OC)c2)cc(C)c1=O (stereo not drawn) [Compound D348]
< 10 nM	COc1cc(-c2cn(C)c(=O)cc2C)cc(OC)c1CN1CC(CN2CCC3(CC2)CN(c2ccc4c(c2)C(=O)N(C2CCC(=O)NC2=O)C4=O)C3)C1 (stereo not drawn) [Compound D349]
100 to 1000 nM	CNC(=O)NCc1cc(-c2cc(OC)c(CN3CC(CN4CCC5(CC4)CN(c4ccc6c(c4)C(=O)N(C4CCC(=O)NC4=O)C6=O)C5)C3)c(OC)c2)cn(C)c1=O (stereo not drawn) [Compound D350]
> 1000 nM	COc1cc(-c2cn(C)c(=O)c(C#N)c2C)cc(OC)c1CN1CC(CN2CCC3(CC2)CN(c2ccc4c(c2)C(=O)N(C2CCC(=O)NC2=O)C4=O)C3)C1 (stereo not drawn) [Compound D351]
> 1000 nM	COc1cc(-c2cc(C#N)c(=O)n(C)c2)cc(OC)c1CN1CC(CN2CCC3(CC2)CN(c2ccc4c(c2)C(=O)N(C2CCC(=O)NC2=O)C4=O)C3)C1 (stereo not drawn) [Compound D352]
< 10 nM	COc1cc(-c2cc(C)c(=O)n(C)c2)c(OC)cc1CN1CC(CN2CCC3(CC2)CN(c2ccc4c(c2)C(=O)N(C2CCC(=O)NC2=O)C4=O)C3)C1 (stereo not drawn) [Compound D353]
< 10 nM	COc1cc(-c2cn(C)c(=O)c(C)c2C)c(OC)cc1CN1CC(CN2CCC3(CC2)CN(c2ccc4c(c2)C(=O)N(C2CCC(=O)NC2=O)C4=O)C3)C1 (stereo not drawn) [Compound D354]
> 1000 nM	CNC(=O)N(C)Cc1cc(-c2cc(OC)c(CN3CC(CN4CCC5(CC4)CN(c4ccc6c(c4)C(=O)N(C4CCC(=O)NC4=O)C6=O)C5)C3)c(OC)c2)cn(C)c1=O (stereo not drawn) [Compound D355]
